What all share (format): cell-based
What all share (conditions): banded into grades

The test system of experiment [1] is Aspergillus flavus. The experiment in a line: Measurement of Minimum Inhibitory Concentrations (MICs), A. flavus. As for the experimental part:
(§1) Between 1 and 5 mgs of compound were accurately weighed out into a sterile Eppendorf tube. The compound was dissolved in DMSO to give a solution containing 5 mg/mL. Tubes were stored at −20° C. until required. On the day of testing thawed solutions were vortex mixed to ensure homogeneity. 30 μL of solution was removed and added to 570 μL of sterile water in a separate sterile Eppendorf. The thoroughly mixed solution was used to prepare a series of doubling dilutions in water, in a deep well plate. […] replicate plates were prepared using a Minitrak by aspirating […] from each well into eleven clear polystyrene 96 well plates. Spores of Aspergillus spp. (Aspergillus fumigatus [two strains], Aspergillus terreus [two strains], Aspergillus niger and Aspergillus flavus) were harvested from cultures grown on Sabarauds agar for 5 days, and resuspended in PBS/Tween 80 to approx 1×10^7 cfu/mL. Each organism suspension was diluted in YAG medium (1% glucose, 1% ammonium chloride and 0.5% yeast extract) to 0.5-2×10^4 cfu/mL. 80 μL of an organism suspension was added to each well of the plate containing drug dilutions. This produced MIC plates with a drug range 50-0.05 mg/L and organism inocula of 1−2×10^4 cfu/mL for Aspergillus spp. All plates were incubated for 24 hrs at 35° C. Growth was assessed by monitoring the optical density at 485 nm for each well. The MIC of a compound is the lowest drug concentration that inhibits growth of an organism by >70% compared with a drug free control. MICs are recorded as mg/L. In cases where the MIC of an organism is >=0.05 mg/L the MIC is repeated using a concentration range of 0.5-0.0005 mg/L. Other growth media can be used for susceptibility testing, and the activity of the described compounds was also assessed in RPMI medium containing 2% glucose, and 0.135M MOPS buffer. MIC tests in YAG medium have more clear-cut endpoints and have slightly lower MICs than those performed in RPMI medium. The following organisms were tested: Aspergillus flavus, Aspergillus fumigatus AF293 and AF210, Aspergillus niger and Aspergillus terreus AT4 and AT49.

Experiment [2] relates to Aspergillus fumigatus AF293. As to the kind of experiment: Measurement of Minimum Inhibitory Concentrations (MICs), A. fumigatus. The protocol: as §1
Experiment [3] relates to Aspergillus niger. The experiment in a line: Measurement of Minimum Inhibitory Concentrations (MICs), A. niger. As for the experimental part: as §1
In experiment [4] the test system is Aspergillus terreus AT4. As to the kind of experiment: Measurement of Minimum Inhibitory Concentrations (MICs), A. terreus. The protocol:
as §1

The subject of experiment [5] is Aspergillus terreus AT49. As to the kind of experiment: Measurement of Minimum Inhibitory Concentrations (MICs), A. terreus 49. As for the experimental part:
as §1

Experiment [6] deals with Aspergillus fumigatus AF210. The experiment in a line: Measurement of Minimum Inhibitory Concentrations (MICs), A. fumigatus 210. The protocol:
as §1

The mark [7] stands for this setting: RPMI medium containing 2% glucose, 0.135M MOPS buffer.
[8] abbreviates: YAG medium, 24 hrs at 35° C., >70% growth inhibition.

The term MIC denotes the least concentration at which growth counts as inhibited. The low end stands for greater potency, the high end for weaker potency.

≈ marks a conversion by molar mass, not a printed value. A value given as a limit tells only on which side of the number the result lay.

Consider `Cc1cc(C)nc(N2CCN(c3ccc(NC(=O)C(=O)c4c(-c5ccccc5)cc5n4CCCC5)c(C)c3)CC2)c1` [Example 20, N-{4-[4-(4,6-Dimethyl-pyridin-2-yl)-piperazin-1-yl]-2-methyl-phenyl}-2-oxo-2-(2-phenyl-5,6,7,8-tetrahydro-indolizin-3-yl)-acetamide], for which the MIC in experiment [1] (setting [7]), in experiment [1] (setting [8]), in experiment [2] (setting [7]), in experiment [2] (setting [8]), in experiment [3] (setting [7]) and in experiment [3] (setting [8]) was < 1 mg/L throughout. For the same compound, the MIC in experiment [4] (setting [7]), in experiment [4] (setting [8]), in experiment [5] (setting [7]), in experiment [5] (setting [8]), in experiment [6] (setting [7]) and in experiment [6] (setting [8]) was < 1 mg/L in each case.
Regarding `Cc1cc(C)nc(N2CCN(c3ccc(NC(=O)C(=O)c4c(C5CCCC5)cc5n4CCCC5)cc3)CC2)c1` [Example 4, 2-(2-cyclopentyl-5,6,7,8-tetrahydro-indolizin-3-yl)-N-{4-[4-(4,6-dimethyl-pyridin-2-yl)-piperazin-1-yl]-phenyl}-2-oxo-acetamide], the MIC in experiment [1] (setting [7]), in experiment [1] (setting [8]), in experiment [2] (setting [7]), in experiment [2] (setting [8]), in experiment [3] (setting [7]) and in experiment [3] (setting [8]) was < 1 mg/L throughout. The MIC in experiment [4] (setting [7]), in experiment [4] (setting [8]), in experiment [5] (setting [7]), in experiment [5] (setting [8]), in experiment [6] (setting [7]) and in experiment [6] (setting [8]) was < 1 mg/L throughout.
For `Cc1cc(C)nc(N2CCN(c3ccc(NC(=O)C(=O)c4c(-c5ccccc5)cc5n4CCCC5)c(Cl)c3)CC2)c1` [Example 30, N-{2-Chloro-4-[4-(4,6-dimethyl-pyridin-2-yl)-piperazin-1-yl]-phenyl}-2-oxo-2-(2-phenyl-5,6,7,8-tetrahydro-indolizin-3-yl)-acetamide], the MIC in experiment [1] (setting [7]), in experiment [1] (setting [8]), in experiment [2] (setting [7]), in experiment [2] (setting [8]), in experiment [3] (setting [7]) and in experiment [3] (setting [8]) was < 1 mg/L throughout. Besides, the MIC in experiment [4] (setting [7]), in experiment [4] (setting [8]), in experiment [5] (setting [7]), in experiment [5] (setting [8]), in experiment [6] (setting [7]) and in experiment [6] (setting [8]) was < 1 mg/L throughout.
In the case of `Cc1cc(C)nc(N2CCN(c3ccc(NC(=O)C(=O)c4c(C5CCN(C)CC5)cc5n4CCCC5)cc3)CC2)c1` [Example 11, N-{4-[4-(4,6-Dimethyl-pyridin-2-yl)-piperazin-1-yl]-phenyl}-2-[2-(1-methyl-piperidin-4-yl)-5,6,7,8-tetrahydro-indolizin-3-yl]-2-oxo-acetamide], the MIC in experiment [1] (setting [7]), in experiment [1] (setting [8]), in experiment [2] (setting [7]), in experiment [2] (setting [8]), in experiment [3] (setting [7]) and in experiment [3] (setting [8]) was > 10 mg/L each time. The MIC in experiment [4] (setting [7]), in experiment [4] (setting [8]), in experiment [5] (setting [7]), in experiment [5] (setting [8]), in experiment [6] (setting [7]) and in experiment [6] (setting [8]) was > 10 mg/L each time.
Take `COc1cc(C)nc(N2CCN(c3ccc(NC(=O)C(=O)c4c(-c5ccccc5)cc5n4CCCC5)cc3)CC2)c1` [Example 8, N-{4-[4-(4-Methoxy-6-methyl-pyridin-2-yl)-piperazin-1-yl]-phenyl}-2-oxo-2-(2-phenyl-5,6,7,8-tetrahydro-indolizin-3-yl)-acetamide]: the MIC in experiment [1] (setting [7]) is 1 to 10 mg/L (≈ 1.82 to 18.2 µM); in experiment [1] (setting [8]) it was < 1 mg/L; in experiment [2] (setting [7]), < 1 mg/L; in experiment [2] (setting [8]), < 1 mg/L; in experiment [3] (setting [7]) it was 1 to 10 mg/L (≈ 1.82 to 18.2 µM); in experiment [3] (setting [8]), 1 to 10 mg/L (≈ 1.82 to 18.2 µM). Moreover, the MIC in experiment [4] (setting [7]) was < 1 mg/L; in experiment [4] (setting [8]), < 1 mg/L; in experiment [5] (setting [7]) it was < 1 mg/L; in experiment [5] (setting [8]) it was < 1 mg/L; in experiment [6] (setting [7]), 1 to 10 mg/L (≈ 1.82 to 18.2 µM); in experiment [6] (setting [8]), < 1 mg/L.
`Cc1cc(C)nc(N2CCC(O)(c3ccc(NC(=O)C(=O)c4c(-c5ccccc5)cc5n4CCCC5)cc3)CC2)c1` [Example 21, N-[4-(4-Hydroxy-4′,6′-dimethyl-3,4,5,6-tetrahydro-2H-[1,2′]bipyridinyl-4-yl)-phenyl]-2-oxo-2-(2-phenyl-5,6,7,8-tetrahydro-indolizin-3-yl)-acetamide]: the MIC in experiment [1] (setting [7]), in experiment [1] (setting [8]), in experiment [2] (setting [7]), in experiment [2] (setting [8]), in experiment [3] (setting [7]) and in experiment [3] (setting [8]) was < 1 mg/L in each case. The MIC in experiment [4] (setting [7]), in experiment [4] (setting [8]), in experiment [5] (setting [7]), in experiment [5] (setting [8]), in experiment [6] (setting [7]) and in experiment [6] (setting [8]) was < 1 mg/L throughout.
As for `COc1cc(C)cc(N2CCN(c3ccc(NC(=O)C(=O)c4c(-c5ccccc5)cc5n4CCCC5)cc3)CC2)n1` [Example 13, N-{4-[4-(6-Methoxy-4-methyl-pyridin-2-yl)-piperazin-1-yl]-phenyl}-2-oxo-2-(2-phenyl-5,6,7,8-tetrahydro-indolizin-3-yl)-acetamide], the MIC in experiment [1] (setting [7]), in experiment [1] (setting [8]), in experiment [2] (setting [7]), in experiment [2] (setting [8]), in experiment [3] (setting [7]) and in experiment [3] (setting [8]) was < 1 mg/L throughout. Besides, the MIC in experiment [4] (setting [7]), in experiment [4] (setting [8]), in experiment [5] (setting [7]), in experiment [5] (setting [8]), in experiment [6] (setting [7]) and in experiment [6] (setting [8]) was < 1 mg/L in each case.
Consider `Cc1cc(C)nc(N2CCN(c3ccc(N(C)C(=O)C(=O)c4c(-c5ccccc5)cc5n4CCCC5)cc3)CC2)c1` [Example 6, N-{4-[4-(4,6-dimethyl-pyridin-2-yl)-piperazin-1-yl]-phenyl}-N-methyl-2-oxo-2-(2-phenyl-5,6,7,8-tetrahydro-indolizin-3-yl)-acetamide], for which the MIC in experiment [1] (setting [7]) is > 10 mg/L; in experiment [1] (setting [8]), > 10 mg/L; in experiment [2] (setting [7]), > 10 mg/L; in experiment [2] (setting [8]) it was 1 to 10 mg/L (≈ 1.83 to 18.3 µM); in experiment [3] (setting [7]), > 10 mg/L; in experiment [3] (setting [8]) it was > 10 mg/L. Moreover, the MIC is > 10 mg/L in experiment [4] (setting [7]); > 10 mg/L in experiment [4] (setting [8]); > 10 mg/L in experiment [5] (setting [7]); 1 to 10 mg/L (≈ 1.83 to 18.3 µM) in experiment [5] (setting [8]); > 10 mg/L in experiment [6] (setting [7]); 1 to 10 mg/L (≈ 1.83 to 18.3 µM) in experiment [6] (setting [8]).
In the case of `CCc1cccc(N2CCN(c3ccc(NC(=O)C(=O)c4c(-c5ccccc5)cc5n4CCCC5)cc3)CC2)n1` [Example 15, N-{4-[4-(6-Ethyl-pyridin-2-yl)-piperazin-1-yl]-phenyl}-2-oxo-2-(2-phenyl-5,6,7,8-tetrahydro-indolizin-3-yl)-acetamide], the MIC in experiment [1] (setting [7]), in experiment [1] (setting [8]), in experiment [2] (setting [7]), in experiment [2] (setting [8]), in experiment [3] (setting [7]) and in experiment [3] (setting [8]) was < 1 mg/L each time. In addition, the MIC in experiment [4] (setting [7]), in experiment [4] (setting [8]), in experiment [5] (setting [7]), in experiment [5] (setting [8]), in experiment [6] (setting [7]) and in experiment [6] (setting [8]) was < 1 mg/L in each case.
